Data set [1] deals with T1, α-chymotrypsin (Bos taurus, UniProt P00766, DEL14-15/DEL147-148).
T1 construct: purchased Sigma-Aldrich (Steinheim, Germany)
Put plainly: Resistance to chymotryptic cleavage. The format is in vitro ADME, bovine pancreas. The following applies: peptide 10 μg/ml, 0.1 mol/L TRIS-HCl pH 7.8, urea 120 mg/mL, α-chymotrypsin E:P 1:200, 24 h, 37 °C. The method, then:
Preliminary experiments using a combination of pepsin and trypsin/chymotrypsin (PTC) for enzymatic hydrolysis were performed with the 33-mer. This PTC hydrolysate of the 33-mer was analysed by untargeted LC-MS/MS followed by data evaluation using the MS/MS ions search module of the Mascot software based on the NCBI database (National Library of Medicine, Bethesda, MD, USA). In addition to the original 33-mer, the truncated forms after N-terminal removal of leucine resulting in a 32-mer (m/z 950.0, 4+ and m/z 1266.3, 3+) and pyro-32-mer (m/z 945.7, 4+ and m/z 1260.6, 3+) were identified, but no 30-mer (m/z 889.7, 4+ and m/z 1185.9, 3+) after potential removal of N-terminal LQL. The ratio 33-mer/32-mer/pyro-32-mer was about 12/76/12. To see whether cleavage of the N-terminal leucine could be minimised, only chymotrypsin was used for further experiments. Therefore, the 33-mer peptide was incubated with chymotrypsin using exactly the same conditions as described for the samples to check its resistance towards cleavage, because it contains two potential chymotryptic cleavage sites at positions L1 and L3. […] Full MS/MS scans were also done for the chymotryptic hydrolysates of the albumin/globulin and gliadin fractions obtained from wheat cv. MJO. […] This is consistent with the original report by Shan et al.[4] who only observed pepsin-catalysed cleavage of the N-terminal leucine. Additionally, no analyte loss is expected to take place during sample preparation, which involves the removal of albumins/globulins.
First, flours (150–200 mg) were defatted with pentane/ethanol (95/5, v/v; 2 × 2.0 mL)[40]. The gliadin fractions from the different defatted flours were extracted as described above. […] The obtained peptide mixture was dried using a vacuum centrifuge (40 °C, 6 h, 800 Pa), re-dissolved in FA (0.1%, v/v, 500 μL), filtered (0.45 μm) and analysed by targeted LC-MS/MS. […] MJO, which were all analysed by untargeted LC-MS/MS. […]

Data set [2] has as its system pepsin. The data set is described as follows: pepsin. The following applies: cited from earlier work.
For data set [3], the system named is tissue transglutaminase (TG2). Put plainly: tissue transglutaminase (TG2). The following applies: cited from earlier work.
Data set [4] has as its system α-chymotrypsin. Put plainly: α-chymotrypsin (E:P ratio of 1:200) in TRIS-HCl-buffer (0.1 mol/L TRIS-HCl, pH 7.8, urea 120 mg/mL). The following applies: bovine pancreas, 37 °C, up to 24 h.
Data set [5] relates to intestinal peptidases. The data set is described as follows: intestinal peptidases. The following applies: cited from earlier work.
In data set [6] the test system is pepsin and trypsin/chymotrypsin (PTC). The data set is described as follows: pepsin (in 0.01 mol/L HCl, pH 2.0, E:P ratio of 1:25) followed by trypsin and α-chymotrypsin (in 0.05 mol/L phosphate buffer, pH 6.5, E:P ratio of 1:200). The following applies: porcine gastric mucosa (pepsin); bovine pancreas (trypsin, α-chymotrypsin), 37 °C, up to 60 min (pepsin) followed by 120 min (trypsin and α-chymotrypsin).

Data set [7] shares this test system. The data set is described as follows: Enzymatic hydrolysis of the 33-mer with pepsin and trypsin/chymotrypsin (PTC). Type of data set: in vitro ADME. The following applies: untargeted LC-MS/MS. The method, then:
Preliminary experiments using a combination of pepsin and trypsin/chymotrypsin (PTC) for enzymatic hydrolysis were performed with the 33-mer. This PTC hydrolysate of the 33-mer was analysed by untargeted LC-MS/MS followed by data evaluation using the MS/MS ions search module of the Mascot software based on the NCBI database (National Library of Medicine, Bethesda, MD, USA). In addition to the original 33-mer, the truncated forms after N-terminal removal of leucine resulting in a 32-mer (m/z 950.0, 4+ and m/z 1266.3, 3+) and pyro-32-mer (m/z 945.7, 4+ and m/z 1260.6, 3+) were identified, but no 30-mer (m/z 889.7, 4+ and m/z 1185.9, 3+) after potential removal of N-terminal LQL. The ratio 33-mer/32-mer/pyro-32-mer was about 12/76/12. To see whether cleavage of the N-terminal leucine could be minimised, only chymotrypsin was used for further experiments. […]
First, flours (150–200 mg) were defatted with pentane/ethanol (95/5, v/v; 2 × 2.0 mL)[40]. […] The obtained peptide mixture was dried using a vacuum centrifuge (40 °C, 6 h, 800 Pa), re-dissolved in FA (0.1%, v/v, 500 μL), filtered (0.45 μm) and analysed by targeted LC-MS/MS. […] MJO, which were all analysed by untargeted LC-MS/MS. […]

In data set [8] the test system is intestinal peptidases. The following applies: 5 (Shan et al. 2002); cited from earlier work. The text has this: All gluten protein fractions, namely the alcohol-soluble prolamins and the insoluble glutelins, contain CD-active epitopes. The prolamin fraction is particularly rich in proline and glutamine and the numerous proline residues lead to a high resistance to complete proteolytic digestion by human gastric, pancreatic, and brushborder enzymes. […] The 33-mer is widely ca ...

The source of these data is paper PMC5361186 (Scientific Reports, 2017).

Values joined by “and” are separate entries in the source; they are usually repeats but may differ in a detail not shown here. Equal values may be shown once. No end group written: not given here.

Take “LQLQP*FPQPQLPYPQPQLPYPQPQLPYPQ*PQ*P*F [*33-mer, [13C28]- and [15N4]-labelled 33-mer peptide used as isotopically labelled internal standard]”: the “stability towards chymotryptic cleavage, looking for *32-mer, pyro-*32-mer and *30-mer” value in data set [1] (full MS/MS scans) is recorded as “stable under the conditions applied”.

As for LQLQPFPQPQLPYPQPQLPYPQPQLPYPQPQPF, the cleaved bond result in data set [2] and in data set [6] was “leucine1-Q” throughout. The fragment found was 33-mer deamidated at glutamine 72 and 33-mer deamidated at glutamine 65 in data set [3]; “pyro-32-mer” in data set [6]. Further, the not cleaved entry in data set [4] is on record as “no detectable amounts of 32-mer, pyro-32-mer or 30-mer, only the intact 33-mer”; in data set [5], “resistant to cleavage by intestinal peptidases”; in data set [6] it was “no 30-mer identified”.

As for “LQLQPFPQPQLPYPQPQLPYPQPQLPYPQPQPF [33-mer]”, in data set [1] (full MS/MS scans, target mass ± 1), the “forms detected after incubation with chymotrypsin, full MS/MS scans of the m/z of 32-mer, pyro-32-mer and 30-mer” value is given as “only the intact 33-mer”. Moreover, in data set [1] (untargeted LC-MS/MS), the “truncated forms after incubation with chymotrypsin, untargeted LC-MS/MS” value is listed as “no truncated forms”. For the same substance, in data set [7] (pepsin in 0.01 mol/L HCl, pH 2.0, 60 min, 37 °C, E:P 1:25, then trypsin and α-chymotrypsin in 0.05 mol/L phosphate buffer, pH 6.5, 120 min, 37 °C, E:P 1:200, Mascot, preliminary experiments), the “ratio 33-mer/32-mer/pyro-32-mer in the PTC hydrolysate” value was “about 12/76/12”. Moreover, in data set [7] (same PTC conditions as E1), the “30-mer after potential removal of N-terminal LQL in the PTC hydrolysate” value is given as “no 30-mer”. Also, the “cleavage by intestinal peptidases” value in data set [8] was “resistant to cleavage by intestinal peptidases”.
